Measurements published in patent US7695741B2, “Topical formulation for prevention and treatment of acne” (SK Chemicals Co., Ltd., priority 2002, dated 2010).
Marks after values point to notes of the source that are not given here.

Assays:
mouse ear edema = assay: Balb.c ear edema test; type: in vivo, Balb.c mouse; conditions: 0.3 mg/ear topically at 15 min and 6 hr after induction; 24 hr
Method: To examine anti-inflammatory effect of the extracts, irritation-inducing substances, 5.0% benzalkonium chloride, 2.5% coroton oil and 3000 iu/g retinoic acid (negative control) were dissolved in 70% ethanol solution and its 0.3 mg/ear was topically applied to mouse ear (6 mice per group) in order to induce edema. At 15 min and 6 hr after induction of edema, respectively, each of the extract and controls (0.3 mg/ear) was topically applied to mouse ear. After 24 hr of application of irritation-inducing substances, the applied portion of the mouse was cut off with a punch and its weight was weighted. The edema extent was evaluated based on the mean value from the measurements with micrometer.
Inhibitory rate (%)=[(A−B)/A]×100 Formula 4
A: mean value of ear thickness of control group (ear thickness after treatment of negative control−ear thickness with no treatment)
B: ear thickness of sample group (ear thickness after treatment of sample−ear thickness with no treatment)

carrageenan foot edema = assay: Carrageenan foot edema method using SD rat; type: in vivo; conditions: 30 mg/kg intraperitoneally, 1 hr before carrageenan; foot volume change at 4 hr
Method: The extracts from Cavalia gladiata, Biota orientalis, Coptis chinensis and their mixture prepared in Example 1 were intraperitoneally administered, respectively, in an amount of 30 mg/kg. After 1 hr, 0.5 ml of 0.1% carrageenan solution was injected into the sole of a back foot to induce inflammation. The volume change of rat foot at the time of injection of carrageenan and 4-hr after administration was measured and the Inhibitory rate was calculated according to the Formula 3. Inhibitory rate (%)=[(1−ΔVtreated group)/ΔVcontrol group)]×100 (ΔV: volume change of foot) Formula 3

skin of a hairless mouse = assay: First screening for promoting keratolysis (silver acetate blackened skin, closed patch); type: in vivo; design: key to Discoloration (keratolysis effect): ++: significant discoloration; +: discoloration; ±: slight discoloration; −: no change; conditions: for Appearance of Exfoliation: hairless mouse, closed patch about 24 hr; for Discoloration (keratolysis effect): positive control 2 wt % (pH 4)
Method: All skin cells help to maintain skin homeostasis through suitable metabolic processes by controlling the rate of their proliferation and exfoliation. Therefore, the reproduction rate of skin could be indirectly examined by observing the exfoliation rate of stratum corneum that can be generally measured by evaluating the level of skin discoloration associated with keratolysis. In evaluating the efficacy of extracts, the first screening for promoting keratolysis was performed using hairless mouse. Each extract sample was prepared by dissolving the dried powder extract prepared in Example 1 in 70% ethanol and the positive controls including glycolic acid or lactic acid were prepared as described above. The experiments were carried out as follows: The skin of a hairless mouse was washed with 10% SDS for 30 min and then allowed its skin to dry for experiment. 0.4 ml of aqueous silver acetate liquid was covered with a hill top chamber and closed patch was performed for 30 min, followed by infiltrating with a photo-developing solution to blacken a portion of patch with silver acetate. The closed patch was further performed with each extract sample on the blackened portion and removed after about 24 hr. The coloring index before application of extract and discoloring index at 24 hr after removal were measured by means of calorimeter (The higher the discoloring index, the higher is the keratolysis effect)

Propionibacterium acnes = assay: Antimicrobial activity against acne pathogen (agar medium, anaerobic culture, colony count); type: cell-based; design: key: −: inhibition of growth; ±: pseudo-positive; +: positive
Method: The examination on antimicrobial activity of three extracts (Cavalia gladiata, Biota orientalis and Coptis chinensis) was performed in such a manner that an acne pathogen (Propionibacterium acnes) that was cultured in liquid medium was treated with a predetermined concentration of extract powderized by freeze drying and then cultured in an anaerobic incubator, followed by measuring a minimum inhibitory concentration (MIC) against an acne pathogen (Propionibacterium acnes). The overall procedure is as follows:
The acne pathogen (Propionibacterium acnes) was cultured at 37° C. for 3 days in reinforced clostridial medium and then continued to subculture until showing significant activity.
First, in a liquid culture method, 10 ml of reinforced clostridial medium were introduced to screw cap tube and sterilized for 20 min at 121° C. After sterilization, 0.5 ml of liquid paraffin sterilized separately was added dropwise on the liquid medium to protect the contact with oxygen. After cooling the medium, the microbe was inoculated into the medium and cultured at 37° C. for above 72 hr.
Second, in a solid culture method, 10 ml of the solid medium prepared by adding 0.1% agar to reinforced clostridial medium was introduced to a screw cap tube and sterilized at 121° C. for 20 min. After cooling the medium, the microbe was inoculated into the medium by use of inoculating platinum loop and stab-cultured for 72 hr at 37° C.
Third, in a plate culture method, the agar medium prepared and sterilized as a solid culture method was poured to a plate and cooled. After cooling and solidifying completely, the plate was placed in an anaerobic jar, 10 ml of water were introduced to complex gas (CO2 10.5%, H2 9.6%, N2 79.9%) and the lid was kept covered, followed by culturing at 37° C. for 72 hr.
1 ml of the medium containing Propionibacterium acnes subjected to a sufficient subculture was taken and inoculated into a medium containing 9 ml of reinforced clostridial medium, thereby obtaining 10-fold diluted culture medium. The same procedure was repeated to obtain between 10^−1 and […] diluted culture media. Each of the homogeneous solutions containing Cavalia gladiata, Biota orientalis, Coptis chinensis and at least two combinations thereof was well dissolved in 10 ml of 70% ethanol to obtain 2-fold diluted solution. The solution was filtered for removing bacteria through 0.2 μm membrane filter. […] 1 ml of the diluted medium (medium of Propionibacterium acnes subject to subculture diluted to 10^−1-10^−5) was dispensed in a petri dish and each agar medium having certain concentration was dispensed, followed by mixing and keeping it to stand for solidifying the agar medium. After solidification, the medium was placed in an anaerobic jar that in turn was equipped with gas-pak. Following culturing at 37° C. for 3 days, the number of colonies formed were counted and compared to that of a control group, and the inhibitory rate was calculated based on the results.

[1] = biological target: T1, Testosterone 5α-Reductase (Rattus norvegicus, UniProt P24008); assay: Inhibitory effect on testosterone 5α-reductase activity (rat liver enzyme, (3H) testosterone, TLC); type: biochemical, Sprague-Dawley rat
T1 construct: from tissue; host or cells: liver of 8-week-old female Sprague-Dawley rat (homogenate, sonicated and centrifuged)
T1 sequence (P24008 1-259): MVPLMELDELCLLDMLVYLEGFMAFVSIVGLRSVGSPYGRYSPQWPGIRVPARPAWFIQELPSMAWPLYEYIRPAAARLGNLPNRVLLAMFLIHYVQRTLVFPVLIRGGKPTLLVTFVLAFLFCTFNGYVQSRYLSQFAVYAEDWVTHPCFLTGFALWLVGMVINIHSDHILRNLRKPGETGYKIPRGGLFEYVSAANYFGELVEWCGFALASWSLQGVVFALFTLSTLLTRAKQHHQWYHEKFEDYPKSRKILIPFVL
Method: Testosterone 5α-Reductase, used to examine the inhibitory effect of the extract obtained from oriental medicines against testosterone 5α-reductase activity, was prepared at a temperature of below 4° C. The white female Sprague-Dawley rat aged at 8 weeks was anesthetized by inhalation of diethylether and sacrificed by the disjunction of cervicals, followed by liver ablation. The extracted liver was washed three times with PBS (phosphate buffered saline) and 3 volumes of ice-cold buffer (50 mM sodium phosphate, pH 6.8, 0.25 M sucrose, 1 mM dithiothreitol) were added, followed by pulverizing with a cell homogenizer (Polytron Homogenizer), obtaining homogenized suspension. […] The protein quantification of the protein suspension obtained thus was performed according to Bradford method and its accurate value was determined with ELISA reader.
For evaluating the inhibitory effect on the activity of 5α-Reductase, to 50 μl of the reaction solution, 10 μl of ethanol solution of inhibitor or tested sample (70% ethanol solution containing extract from oriental medicine) were added and the protein suspension was added to the volume of 100 μl of the reaction solution. […] The area exposed was measured with densitometer and the inhibitory rate against testosterone 5α-Reductase was calculated as shown in the below formula 1. […]

comedo of rabbit ear [2] = assay: Alleviatory effect on comedo using ear of white rabbit, observation with naked eye; type: in vivo, New Zealand white male rabbits
Description: (§1) Test system—This test has been generally adopted for evaluation of treatment. New Zealand white male rabbits aged at 4-month and weighed 2-3 kg were purchased and mitigated for 1 week, of which only the healthy ones determined with naked eye were selected.
(§2) Test materials—For test groups, the powderized extracts (0.1% (w/v)) from Cavalia gladiata, Biota orientalis, Coptis chinensis and their mixture dissolved in 70% ethanol solution were used, respectively, 1.0% azelaic acid dissolved in 70% ethanol solution was used as a positive control and 70% ethanol solution per se was used as negative control.
(§3) Classification of test systems—Isopropyl myriatate (Sigma) was daily applied to both ears of rabbit for 2 weeks for inducing comedo. Rabbits observed with naked eye to show typical comedo were selected and classified to groups each of which was comprised of 6 rabbits in consideration of comedo severity.
(§4) Administration method of test materials—Test groups and a positive control to the right ear and a negative control to the left ear of rabbit were administered once daily for 2 weeks in the amount of 0.5 ml and spread with a swab. After 2 weeks, both ears were evaluated.
The standards for determination with naked eye were classified to 7 grades, 0, 0.5, 1.0, 1.5, 2.0, 2.5 and 3.0. The area of comedo was evaluated. The period for treatment of comedo was 2-week and the aggravation and alleviation of comedo were determined.
• 0: no difference compared to control • […]: symptoms between 0 and 1 • 1: showing congestion, bleeding of capillary tube, slight cornification and enlargement of hair follicle • 1.5: symptoms between 1 and 2 • 2: medium severity of cornification and enlargement of hair follicle • 2.5: symptoms between 2 and 3 • 3: excessive severity of cornification and enlargement of hair follicle, showing typical comedo

comedo of rabbit ear [3] = assay: Alleviatory effect on comedo using ear of white rabbit, observation with image analysis; type: in vivo, New Zealand white male rabbits
Description: as §1, §2, §3, §4
After the observation with naked eye, each test group was euthanized with sodium pentobarbital and its both ears were cut out, after which their tissues at basement were cleaved in a size of about 2.5×1.5 cm and immersed in warm water (50° C.) for 3 min. The epiderms from the tissues were detached, placed with inner side upward on slide glass, fixed and dried at room temperature.

[4] = extracts 0.1% (w/v), azelaic acid 1.0%, 2 weeks

COc1ccc2c(c1)c(CC(=O)O)c(C)n2C(=O)c1ccc(Cl)cc1 [Indomethacin]
Inhibitory rate on ear thickness (%) (mouse ear edema): 52.0% | Inhibitory rate on ear weight (%) (mouse ear edema): 45.6%

CC(=O)Oc1ccccc1C(=O)O [Aspirin]
Inhibitory rate (%) of foot edema (carrageenan foot edema): 35.2 ± 6%

CC(O)C(=O)O (stereo not drawn) [Lactic acid]
Appearance of Exfoliation (skin of a hairless mouse): Heterogeneous | Discoloration (keratolysis effect) (skin of a hairless mouse): 2 wt % (pH 4) ++

O=C(O)CO [Glycolic acid]
Appearance of Exfoliation (skin of a hairless mouse): Heterogeneous | Discoloration (keratolysis effect) (skin of a hairless mouse): 2 wt % (pH 4) ++

O=C(OOC(=O)c1ccccc1)c1ccccc1 [Benzoylperoxide]
MIC to P. acnes (growth at concentration of extract) (Propionibacterium acnes; Concentration of extract 0.005 %): + | MIC to P. acnes (growth at concentration of extract) (Propionibacterium acnes; Concentration of extract 0.01 %): + | MIC to P. acnes (growth at concentration of extract) (Propionibacterium acnes; Concentration of extract 0.03 %): + | MIC to P. acnes (growth at concentration of extract) (Propionibacterium acnes; Concentration of extract 0.05 %): +*** | MIC to P. acnes (growth at concentration of extract) (Propionibacterium acnes; Concentration of extract 0.10 %): ±** | MIC to P. acnes (growth at concentration of extract) (Propionibacterium acnes; Concentration of extract 0.50 %): −

CC1(C)[C@@H](O[C@H]2O[C@H](C(=O)O)[C@@H](O)[C@H](O)[C@H]2O[C@@H]2O[C@H](C(=O)O)[C@@H](O)[C@H](O)[C@H]2O)CC[C@]2(C)[C@H]3C(=O)C=C4[C@@H]5C[C@@](C)(C(=O)O)CC[C@]5(C)CC[C@@]4(C)[C@]3(C)CC[C@@H]12 [Glycyrrhizinic acid]
Inhibitory rate on ear thickness (%) (mouse ear edema): 42.7% | Inhibitory rate on ear weight (%) (mouse ear edema): 38.4%

O=C(O)CCCCCCCC(=O)O [Azelaic acid]
Inhibitory rate against 5α-reductase (%) ([1]; Conc. 0.1 %): 19.8% | Inhibitory rate against 5α-reductase (%) ([1]; Conc. 1.0 %): 100.0% | Inhibitory rate (%), naked eye comedo grade (comedo of rabbit ear [2]; [4]): 28.5% | After administration (right ear), naked eye comedo grade (comedo of rabbit ear [2]; grades 0-3, extracts 0.1% (w/v), azelaic acid 1.0%, 0.5 ml once daily for 2 weeks): 1.13 ± 0.14 | Before administration (left ear), naked eye comedo grade (comedo of rabbit ear [2]; grades 0-3, left ear): 1.58 ± 0.12 | Inhibitory rate (%), area of comedo/number (comedo of rabbit ear [3]; [4]): 40.0% | After administration (right ear) Area of comedo/number (cm^2) (comedo of rabbit ear [3]; image analysis, extracts 0.1% (w/v), azelaic acid 1.0%, once daily for 2 weeks): 0.18 ± 0.02 cm^2 | Before administration (left ear) Area of comedo/number (cm^2) (comedo of rabbit ear [3]; image analysis, left ear): 0.30 ± 0.02 cm^2 | comedo decreasing ratio (area/count ratio) (comedo of rabbit ear [3]; text restating Table 11): 40.0%
